{
  "source": "patent US20090098652A1",
  "about": "“SELF ASSEMBLING PEPTIDE SYSTEMS AND METHODS” (Northwestern University, priority 2007, published 2009)",
  "key": {"[1]": {"test_system": "P19 cells in suspension aggregates", "assay": "Transfection of P19 suspension aggregates with GFP plasmid, read by qPCR and Western blot", "assay_type": "cell-based", "settings": "comparison of PA system, peptide and Lipofectamine", "source_text": "In the figure, “peptide amphiphile” is the DNA-binding PA with sequence […](N^ε-palmitoyl) and “peptide” is a peptide with sequence […].\nIn some embodiments, the invention described here improves on this system by incorporating one or more peptides which are bioactive and direct the complex to the nucleus. It is designed, in some embodiments, to form an alpha helix which binds to the major groove of the double helix of DNA. In addition, it is a self-assembling peptide amphiphile (PA) which forms high aspect ratio nanostructures. When complexed with DNA, these nanostructures are, on average, smaller than the nanostructures produced by LIPOFECAMINE as determined by dynamic light scattering. The present invention is not limited to a particular mechanism. Indeed, an understanding of the mechanism is not necessary to practice the present invention. Nonetheless, it is contemplated that the system works by complexing and condensing the DNA through specific binding to the major groove and electrostatic screening. This DNA-PA complex is similar to the LIPOFECTAMINE complex, however it includes a peptide region containing a nuclear localization signal which directs the cell to move this complex through the cytoplasm and into the nucleus where the genes encoded in the DNA are subsequently expressed. […]"}, "[2]": {"test_system": "P19 cells", "settings": "flow cytometry; all tested concentrations", "experimental": "In experiments conducted during development of embodiments of the present invention, P19 cells in suspension were allowed to form aggregates for four days and were then cultured with the histidine hexamer PA, with sequence [sequence]-palmitoyl for two weeks. […] P19 cells were allowed to form aggregates for seven days and then cultured with the DNA-PA complexes."}},
  "note": "Where a SMILES comes first, the peptide text is derived from it. The star is where a group is joined. Palmitoyl = CCCCCCCCCCCCCCCC(=O)*",
  "data": [
    {"compound": "RKTAKRLGVYQSAINK [peptide]", "values": [
      {"measurement": "transfection efficiency (in words)", "setting": "[1]", "value": "lower transfection efficiency"},
      {"measurement": "transfection efficiency (in words)", "setting": "[1]; listed as peptide control", "value": "poor results compared to both the lipofectamine system and the PA system"}
    ]},
    {"compound": "CCCCCCCCCCCCCCCC(=O)NCCCC[C@H](NC(=O)[C@H](C)NC(=O)[C@H](C)NC(=O)[C@H](C)NC(=O)[C@H](CC(C)C)NC(=O)[C@H](CC(C)C)NC(=O)[C@H](CC(C)C)NC(=O)[C@H](CCCCN)NC(=O)[C@H](CC(N)=O)NC(=O)[C@@H](NC(=O)[C@H](C)NC(=O)[C@H](CO)NC(=O)[C@H](CCC(N)=O)NC(=O)[C@H](Cc1ccc(O)cc1)NC(=O)[C@@H](NC(=O)CNC(=O)[C@H](CC(C)C)NC(=O)[C@H](CCCNC(=N)N)NC(=O)[C@H](CCCCN)NC(=O)[C@H](C)NC(=O)[C@@H](NC(=O)[C@H](CCCCN)NC(=O)[C@@H](N)CCCNC(=N)N)[C@@H](C)O)C(C)C)[C@@H](C)CC)C(=O)O", "note": "[DNA-binding PA] (H-RKTAKRLGVYQSAINKLLLAAAK(Palmitoyl)-OH)", "values": [
      {"measurement": "toxicity to P19 cells", "setting": "[2]", "value": "nontoxic"}
    ]}
  ]
}
